Usually Ki stands for a dissociation constant, usually derived from enzyme kinetics or from competition with a known ligand. One may read the inhibition as the change of the read-out against control, counted positive when it falls.

Here are results for nine compounds from ChEMBL document CHEMBL1137797, “Differential inhibition of reverse transcriptase and various DNA polymerases by digallic acid and its derivatives” (J Nat Prod, 1990).

Experiment [1] relates to Rauscher murine leukemia virus. Put plainly: Inhibition of Rauscher murine leukemia virus reverse transcriptase activity.
For experiment [2], the system named is Human immunodeficiency virus. The experiment is described as follows: Inhibition of HIV reverse transcriptase activity expressed in Escherichia coli.
For experiment [3], the system named is Human immunodeficiency virus. The experiment is described as follows: Inhibition of HIV reverse transcriptase expressed in Escherichia coli assessed as non-competitive inhibition using dTTP as primer by double reciprocal plot.
The test system of experiment [4] is Human immunodeficiency virus. The experiment is described as follows: Inhibition of HIV reverse transcriptase expressed in Escherichia coli assessed as competitive inhibition using (rA)n.(dT)12-18 as primer by double reciprocal plot.
Experiment [5] is described as follows: Inhibition of HIV reverse transcriptase expressed in Escherichia coli by Dixon plot. On the set-up: species or system Human immunodeficiency virus.
Experiment [6] has as its system Human immunodeficiency virus. Put plainly: Inhibition of HIV reverse transcriptase expressed in Escherichia coli assessed as incorporation of [3H]dTMP at 10 ug/ml.
In experiment [7] the test system is Rauscher murine leukemia virus. The experiment is described as follows: Inhibition of Rauscher murine leukemia virus reverse transcriptase assessed as incorporation of [3H]dTMP at 10 ug/ml.
Experiment [8] has as its target T1, DNA polymerase alpha catalytic subunit (Homo sapiens, UniProt P09884).
T1 sequence (P09884 whole entry): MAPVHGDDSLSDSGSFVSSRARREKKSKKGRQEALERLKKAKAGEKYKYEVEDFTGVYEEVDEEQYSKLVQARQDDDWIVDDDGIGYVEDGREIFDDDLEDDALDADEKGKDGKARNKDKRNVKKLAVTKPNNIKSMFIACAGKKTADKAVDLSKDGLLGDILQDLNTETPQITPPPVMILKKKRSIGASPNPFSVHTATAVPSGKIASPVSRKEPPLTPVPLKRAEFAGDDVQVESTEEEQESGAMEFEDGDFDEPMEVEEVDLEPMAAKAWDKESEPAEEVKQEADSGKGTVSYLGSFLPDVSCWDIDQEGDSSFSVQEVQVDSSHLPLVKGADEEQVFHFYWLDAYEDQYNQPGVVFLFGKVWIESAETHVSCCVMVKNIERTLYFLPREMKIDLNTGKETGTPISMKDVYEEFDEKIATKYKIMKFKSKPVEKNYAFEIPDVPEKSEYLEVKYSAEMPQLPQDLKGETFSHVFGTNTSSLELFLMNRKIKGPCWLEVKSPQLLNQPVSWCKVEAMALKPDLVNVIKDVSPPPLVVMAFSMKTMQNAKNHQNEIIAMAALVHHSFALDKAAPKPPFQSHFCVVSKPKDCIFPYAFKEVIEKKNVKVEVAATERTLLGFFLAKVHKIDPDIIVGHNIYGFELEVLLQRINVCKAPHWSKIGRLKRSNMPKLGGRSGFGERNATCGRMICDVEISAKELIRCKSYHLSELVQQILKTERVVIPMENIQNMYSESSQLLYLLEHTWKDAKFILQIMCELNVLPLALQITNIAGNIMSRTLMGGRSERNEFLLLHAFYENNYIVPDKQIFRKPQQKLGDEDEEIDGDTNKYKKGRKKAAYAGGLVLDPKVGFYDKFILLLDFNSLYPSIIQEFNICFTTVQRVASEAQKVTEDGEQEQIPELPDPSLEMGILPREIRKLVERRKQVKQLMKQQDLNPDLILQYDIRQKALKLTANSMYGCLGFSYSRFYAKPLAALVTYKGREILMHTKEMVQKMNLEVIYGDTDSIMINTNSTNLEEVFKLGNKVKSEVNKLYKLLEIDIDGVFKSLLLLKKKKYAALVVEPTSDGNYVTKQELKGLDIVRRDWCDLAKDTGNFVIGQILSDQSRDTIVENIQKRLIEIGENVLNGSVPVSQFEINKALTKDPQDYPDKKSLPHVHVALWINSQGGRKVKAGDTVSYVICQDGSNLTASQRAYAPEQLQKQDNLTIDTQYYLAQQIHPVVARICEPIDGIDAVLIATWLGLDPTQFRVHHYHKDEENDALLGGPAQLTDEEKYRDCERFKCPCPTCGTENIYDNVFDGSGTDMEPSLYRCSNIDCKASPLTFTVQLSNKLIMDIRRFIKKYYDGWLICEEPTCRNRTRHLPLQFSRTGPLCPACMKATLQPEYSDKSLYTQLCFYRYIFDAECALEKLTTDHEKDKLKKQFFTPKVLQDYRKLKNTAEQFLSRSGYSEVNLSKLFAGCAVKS
The experiment is described as follows: Inhibition of DNA polymerase alpha from human KB3 cells. The class given is cell-based.

Experiment [9] has as its system Human immunodeficiency virus. Put plainly: Inhibition of HIV reverse transcriptase expressed in Escherichia coli assessed as mixed-type inhibition using (rA)n.(dT)12-18 as primer by double reciprocal plot.
The target of experiment [10] is T2, DNA polymerase beta (Homo sapiens, UniProt P06746). Put plainly: Inhibition of DNA polymerase beta from human KB3 cells assessed as non-competitive type inhibition using dTTP as substrate.
For experiment [11], the system named is Rauscher murine leukemia virus. Put plainly: Inhibition of Rauscher murine leukemia virus reverse transcriptase assessed as incorporation of [3H]dTMP at 0.2 ug/ml.
The subject of experiment [12] is Human immunodeficiency virus. The experiment is described as follows: Inhibition of HIV reverse transcriptase expressed in Escherichia coli assessed as incorporation of [3H]dTMP at 0.2 ug/ml.
Experiment [13] has as its system Human immunodeficiency virus. Put plainly: Inhibition of HIV reverse transcriptase expressed in Escherichia coli assessed as incorporation of [3H]dTMP at 1 ug/ml.
Experiment [14] addresses T3, DNA polymerase alpha catalytic subunit (Homo sapiens) (UniProt P09884).
T3 sequence (whole entry): T1 sequence (P09884 whole entry)
The experiment is described as follows: Inhibition of DNA polymerase alpha from human KB3 cells at 1 ug/ml. Format: cell-based.

Experiment [15] concerns the target DNA nucleotidylexotransferase (Bos taurus) (UniProt P06526). Put plainly: Inhibition of terminal deoxynucleotidyltransferase from calf thymus up to 1 ug/ml.
In experiment [16] the test system is Rauscher murine leukemia virus. The experiment is described as follows: Inhibition of Rauscher murine leukemia virus reverse transcriptase assessed as incorporation of [3H]dTMP at 1 ug/ml.
In experiment [17] the target is T3, DNA polymerase alpha catalytic subunit (Homo sapiens). Put plainly: Inhibition of DNA polymerase alpha from human KB3 cells assessed as competitive type inhibition using activated DNA as substrate.
Experiment [18] addresses DNA polymerase I (Escherichia coli) (UniProt P00582). Put plainly: Inhibition of DNA polymerase-1 from Escherichia coli up to 1 ug/ml.
The target in experiment [19] is T3, DNA polymerase alpha catalytic subunit (Homo sapiens). The experiment is described as follows: Inhibition of DNA polymerase alpha from human KB3 cells assessed as non-competitive type inhibition using dNTP as substrate.
The target in experiment [20] is T2, DNA polymerase beta. Put plainly: Inhibition of DNA polymerase beta from human KB3 cells. Format: cell-based.
The next experiment relates to KB3. The experiment is described as follows: Inhibition of DNA polymerase gamma from human KB3 cells up to 1 ug/ml. The class given is cell-based.
Experiment [21] concerns the target T2, DNA polymerase beta. Put plainly: Inhibition of DNA polymerase beta from human KB3 cells assessed as competitive type inhibition using (rA)n.(dT)12-18 as substrate.

The source made the active and inactive calls. The rule behind the calls is not given here. Where only a bound is given, the exact number is not on record here.

Chain of DNA nucleotidylexotransferase (Bos taurus) (P06526 whole entry): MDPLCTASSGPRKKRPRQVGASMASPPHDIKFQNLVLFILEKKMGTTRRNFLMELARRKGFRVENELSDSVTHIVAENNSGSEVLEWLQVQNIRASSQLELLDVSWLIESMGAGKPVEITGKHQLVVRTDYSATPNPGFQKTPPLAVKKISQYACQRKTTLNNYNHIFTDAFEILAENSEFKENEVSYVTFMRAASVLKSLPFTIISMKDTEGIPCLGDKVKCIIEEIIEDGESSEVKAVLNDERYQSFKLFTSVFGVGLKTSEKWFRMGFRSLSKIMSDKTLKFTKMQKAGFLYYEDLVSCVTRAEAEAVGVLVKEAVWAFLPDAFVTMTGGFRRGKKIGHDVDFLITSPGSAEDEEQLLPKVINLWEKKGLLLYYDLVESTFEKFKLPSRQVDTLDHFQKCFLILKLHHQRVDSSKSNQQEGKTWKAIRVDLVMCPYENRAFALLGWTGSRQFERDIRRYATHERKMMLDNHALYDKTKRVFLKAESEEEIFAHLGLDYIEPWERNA
Chain of DNA polymerase I (Escherichia coli) (P00582 whole entry): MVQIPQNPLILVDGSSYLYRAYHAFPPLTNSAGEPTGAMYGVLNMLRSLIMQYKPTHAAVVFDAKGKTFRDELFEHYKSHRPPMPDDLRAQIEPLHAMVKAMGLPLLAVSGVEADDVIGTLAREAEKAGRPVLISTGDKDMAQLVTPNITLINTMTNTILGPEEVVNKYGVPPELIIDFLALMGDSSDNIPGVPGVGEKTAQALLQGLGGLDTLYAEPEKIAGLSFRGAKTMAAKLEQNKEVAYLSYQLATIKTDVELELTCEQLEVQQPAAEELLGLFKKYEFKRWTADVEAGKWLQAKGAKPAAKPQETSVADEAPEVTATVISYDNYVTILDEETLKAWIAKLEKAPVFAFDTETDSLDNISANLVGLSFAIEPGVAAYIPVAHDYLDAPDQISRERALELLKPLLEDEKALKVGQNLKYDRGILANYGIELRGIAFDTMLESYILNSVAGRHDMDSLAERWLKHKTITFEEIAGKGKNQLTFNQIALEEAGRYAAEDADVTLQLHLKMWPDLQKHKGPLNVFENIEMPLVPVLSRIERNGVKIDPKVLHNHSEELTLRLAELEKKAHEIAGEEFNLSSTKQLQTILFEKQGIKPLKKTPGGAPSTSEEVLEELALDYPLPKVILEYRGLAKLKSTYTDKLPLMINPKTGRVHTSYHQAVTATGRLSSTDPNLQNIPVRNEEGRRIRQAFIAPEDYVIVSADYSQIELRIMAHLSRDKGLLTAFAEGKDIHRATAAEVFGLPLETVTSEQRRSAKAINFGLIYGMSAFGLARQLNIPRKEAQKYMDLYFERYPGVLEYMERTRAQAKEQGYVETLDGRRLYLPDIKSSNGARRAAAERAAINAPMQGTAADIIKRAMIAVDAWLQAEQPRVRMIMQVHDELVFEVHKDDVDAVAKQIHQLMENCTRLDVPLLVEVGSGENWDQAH

Turning to `COCCOCCOCCOC(=O)c1cc(O)c(O)c(O)c1`, the result in [1] and in [2] was inactive.

As to `COCCOCCOC(=O)c1cc(O)c(O)c(OC(=O)c2ccc(O)c(O)c2O)c1`, the result in experiment [3], in experiment [4], in experiment [1] and in experiment [2] was Active. Affinity in experiment [5] was put at a Ki of 120 nM.

As for `COCCOCCOc1c(O)ccc(C(=O)Oc2cc(C(=O)O)cc(O)c2O)c1O`, the outcome in experiment [1] and in [2] was inactive.

Regarding `COCCOCCOC(=O)c1cc(O)c(O)c(O)c1`, the outcome in experiment [1] and in experiment [2] was inactive.

With `O=C(O)c1cc(O)c(O)c(O)c1`, the outcome in experiment [6], in experiment [1], in [7] and in experiment [2] was inactive.

For the compound `O=C(Oc1cc(O)cc(O)c1C(=O)O)c1ccc(O)c(O)c1`, the result in [1] and in experiment [2] was inactive.

`O=C(O)c1cc(O)c(O)c(OC(=O)c2cc(O)c(O)c(O)c2)c1` [DIGALLIC ACID]: the Ki in experiment [8] worked out at 830 nM; on DNA polymerase beta [20] it was 390 nM; in experiment [5], 580 nM. Besides, the outcome (in experiment [9]; on DNA polymerase beta [10]; in [3]; in experiment [13]; in experiment [16]; in [17]) was Active. Besides, the result (in [19]; on DNA polymerase beta [21]) was Active. For the same compound, the inhibition in [11] was 70%; in experiment [12] it was 70%; in [14], > 90%. In addition, the outcome (in [15]; in experiment [18]; in the experiment with KB3) was inactive.

On to `COCCOCCOc1c(C(=O)Oc2cc(C(=O)O)cc(O)c2O)ccc(O)c1O`, for which the outcome in experiment [1] and in [2] was inactive.

On to `COCCOCCOCCOC(=O)c1cc(O)c(O)c(OC(=O)c2ccc(O)c(O)c2O)c1`, for which the outcome in [9], in experiment [3], in [1] and in experiment [2] was Active. Also, the affinity in experiment [5], expressed as Ki, was 390 nM.
